From article PMC7523345 (Investigational new drugs, 2018)
Entries after “also recorded” stand apart in the source; their conditions may differ.

Assay: Phase I dose escalation study: safety, tolerability, DLT and MTD
Assay type: in vivo

## Cc1cccc2c1NC(=O)[C@@H](NC(=O)[C@H](CCC(F)(F)F)[C@H](CCC(F)(F)F)C(N)=O)N=C2c1cccc(F)c1 [BMS-986115]
Arm B BIW 4 mg (N = 2)
  Hypokalaemia (drug related AE, Grade 3 and 4): 0 n (%)
  Hypokalaemia (drug related AE, all grades): 1 (50) n (%)
  Hyponatraemia (drug related AE, Grade 3 and 4): 0 n (%)
  Hyponatraemia (drug related AE, all grades): 0 n (%)
  Hypophosphataemia (drug related AE, Grade 3 and 4): 1 (50) n (%)
  Hypophosphataemia (drug related AE, all grades): 1 (50) n (%)
  Ileus (drug related AE, Grade 3 and 4): 0 n (%)
  Increased upper airway secretion (drug related AE, all grades): 1 (50) n (%)
  Laryngeal pain (drug related AE, all grades): 0 n (%)
  Leucocytosis (drug related AE, Grade 3 and 4): 0 n (%)
  Mouth ulceration (drug related AE, all grades): 0 n (%)
  Nausea (drug related AE, Grade 3 and 4): 0 n (%)
  Nausea (drug related AE, all grades): 0 n (%)
  Pruritus (drug related AE, Grade 3 and 4): 0 n (%)
  Pruritus (drug related AE, all grades): 1 (50) n (%)
  Pulmonary embolism (drug related AE, Grade 3 and 4): 0 n (%)
  Rash (drug related AE, all grades): 0 n (%)
  Rash maculopapular (drug related AE, all grades): 1 (50) n (%)
  Sinusitis (drug related AE, all grades): 0 n (%)
  Urticaria (drug related AE, Grade 3 and 4): 0 n (%)
  Vision blurred (drug related AE, all grades): 0 n (%)
  Vomiting (drug related AE, Grade 3 and 4): 0 n (%)
  Vomiting (drug related AE, all grades): 0 n (%)
  Weight decreased (drug related AE, all grades): 0 n (%)
Arm B BIW 8 mg
  Description of DLT: Gr 3 diarrhoea; Gr 3 nausea/dehydration/anorexia with Gr 2 fatigue; also recorded: G3 diarrhoea; also recorded: G3 nausea/dehydration/anorexia
  Description of study drug toxicity that led to treatment discontinuation: G3 Diarrhoea (N = 1); also recorded: G3 Dehydration and anorexia (N = 1)
Arm B BIW 8 mg (N = 8)
  Abdominal distension (drug related AE, all grades): 0 n (%)
  Abdominal pain (drug related AE, Grade 3 and 4): 0 n (%)
  Abdominal pain (drug related AE, all grades): 0 n (%)
  Blood creatinine increased (drug related AE, all grades): 1 (13) n (%)
  Colitis (drug related AE, Grade 3 and 4): 0 n (%)
  Cough (drug related AE, Grade 3 and 4): 0 n (%)
  Cough (drug related AE, all grades): 1 (13) n (%)
  Decreased Appetite (drug related AE, Grade 3 and 4): 1 (13) n (%)
  Decreased Appetite (drug related AE, all grades): 5 (63) n (%)
  Dehydration (drug related AE, Grade 3 and 4): 1 (13) n (%)
  Dehydration (drug related AE, all grades): 2 (25) n (%)
  Dermatitis acneiform (drug related AE, all grades): 0 n (%)
  Diarrhoea (drug related AE, Grade 3 and 4): 2 (25) n (%)
  Diarrhoea (drug related AE, all grades): 7 (88) n (%)
  Dry mouth (drug related AE, all grades): 1 (13) n (%)
  Dry skin (drug related AE, all grades): 2 (25) n (%)
  Dysgeusia (drug related AE, all grades): 1 (13) n (%)
  Dyspepsia (drug related AE, all grades): 0 n (%)
  Dysphonia (drug related AE, all grades): 1 (13) n (%)
  Fatigue (drug related AE, Grade 3 and 4): 0 n (%)
  Fatigue (drug related AE, all grades): 4 (50) n (%)
  Flatulence (drug related AE, all grades): 2 (25) n (%)
  Hypocalcaemia (drug related AE, Grade 3 and 4): 1 (13) n (%)
  Hypocalcaemia (drug related AE, all grades): 1 (13) n (%)
  Hypokalaemia (drug related AE, Grade 3 and 4): 0 n (%)
  Hypokalaemia (drug related AE, all grades): 2 (25) n (%)
  Hyponatraemia (drug related AE, Grade 3 and 4): 1 (13) n (%)
  Hyponatraemia (drug related AE, all grades): 1 (13) n (%)
  Hypophosphataemia (drug related AE, Grade 3 and 4): 4 (50) n (%)
  Hypophosphataemia (drug related AE, all grades): 5 (63) n (%)
  Ileus (drug related AE, Grade 3 and 4): 0 n (%)
  Increased upper airway secretion (drug related AE, all grades): 2 (25) n (%)
  Laryngeal pain (drug related AE, all grades): 0 n (%)
  Leucocytosis (drug related AE, Grade 3 and 4): 1 (13) n (%)
  Mouth ulceration (drug related AE, all grades): 1 (13) n (%)
  Nausea (drug related AE, Grade 3 and 4): 1 (13) n (%)
  Nausea (drug related AE, all grades): 6 (75) n (%)
  Pruritus (drug related AE, Grade 3 and 4): 0 n (%)
  Pruritus (drug related AE, all grades): 2 (25) n (%)
  Pulmonary embolism (drug related AE, Grade 3 and 4): 0 n (%)
  Rash (drug related AE, all grades): 3 (38) n (%)
  Rash maculopapular (drug related AE, all grades): 2 (25) n (%)
  Sinusitis (drug related AE, all grades): 0 n (%)
  Urticaria (drug related AE, Grade 3 and 4): 0 n (%)
  Vision blurred (drug related AE, all grades): 1 (13) n (%)
  Vomiting (drug related AE, Grade 3 and 4): 0 n (%)
  Vomiting (drug related AE, all grades): 4 (50) n (%)
  Weight decreased (drug related AE, all grades): 0 n (%)
Arm B BIW 8 mg, 6 DLT evaluable patients
  No. of patients with DLTs: 2
Arm B BIW Total (N = 12)
  Abdominal distension (drug related AE, all grades): 1 (8) n (%)
  Abdominal pain (drug related AE, Grade 3 and 4): 0 n (%)
  Abdominal pain (drug related AE, all grades): 1 (8) n (%)
  Blood creatinine increased (drug related AE, all grades): 1 (8) n (%)
  Colitis (drug related AE, Grade 3 and 4): 0 n (%)
  Cough (drug related AE, Grade 3 and 4): 0 n (%)
  Cough (drug related AE, all grades): 1 (8) n (%)
  Decreased Appetite (drug related AE, Grade 3 and 4): 1 (8) n (%)
  Decreased Appetite (drug related AE, all grades): 5 (42) n (%)
  Dehydration (drug related AE, Grade 3 and 4): 1 (8) n (%)
  Dehydration (drug related AE, all grades): 2 (17) n (%)
  Dermatitis acneiform (drug related AE, all grades): 0 n (%)
  Diarrhoea (drug related AE, Grade 3 and 4): 3 (25) n (%)
  Diarrhoea (drug related AE, all grades): 8 (67) n (%)
  Dry mouth (drug related AE, all grades): 1 (8) n (%)
  Dry skin (drug related AE, all grades): 2 (17) n (%)
  Dysgeusia (drug related AE, all grades): 2 (17) n (%)
  Dyspepsia (drug related AE, all grades): 1 (8) n (%)
  Dysphonia (drug related AE, all grades): 1 (8) n (%)
  Fatigue (drug related AE, Grade 3 and 4): 0 n (%)
  Fatigue (drug related AE, all grades): 6 (50) n (%)
  Flatulence (drug related AE, all grades): 3 (25) n (%)
  Hypocalcaemia (drug related AE, Grade 3 and 4): 1 (8) n (%)
  Hypocalcaemia (drug related AE, all grades): 1 (8) n (%)
  Hypokalaemia (drug related AE, Grade 3 and 4): 0 n (%)
  Hypokalaemia (drug related AE, all grades): 3 (25) n (%)
  Hyponatraemia (drug related AE, Grade 3 and 4): 1 (8) n (%)
  Hyponatraemia (drug related AE, all grades): 1 (8) n (%)
  Hypophosphataemia (drug related AE, Grade 3 and 4): 6 (50) n (%)
  Hypophosphataemia (drug related AE, all grades): 7 (58) n (%)
  Ileus (drug related AE, Grade 3 and 4): 0 n (%)
  Increased upper airway secretion (drug related AE, all grades): 3 (25) n (%)
  Laryngeal pain (drug related AE, all grades): 0 n (%)
  Leucocytosis (drug related AE, Grade 3 and 4): 1 (8) n (%)
  Mouth ulceration (drug related AE, all grades): 1 (8) n (%)
  Nausea (drug related AE, Grade 3 and 4): 1 (8) n (%)
  Nausea (drug related AE, all grades): 7 (58) n (%)
  Pruritus (drug related AE, Grade 3 and 4): 0 n (%)
  Pruritus (drug related AE, all grades): 3 (25) n (%)
  Pulmonary embolism (drug related AE, Grade 3 and 4): 0 n (%)
  Rash (drug related AE, all grades): 3 (25) n (%)
  Rash maculopapular (drug related AE, all grades): 3 (25) n (%)
  Sinusitis (drug related AE, all grades): 0 n (%)
  Urticaria (drug related AE, Grade 3 and 4): 0 n (%)
  Vision blurred (drug related AE, all grades): 1 (8) n (%)
  Vomiting (drug related AE, Grade 3 and 4): 0 n (%)
  Vomiting (drug related AE, all grades): 4 (33) n (%)
  Weight decreased (drug related AE, all grades): 0 n (%)
Arm B BIW, all dose levels
  Patients with dose limiting toxicities: 2 patients
Arm B BIW, one line per subject
  Treatment-related SAEs, description: Gr 3 diarrhoea; also recorded: Gr 3 nausea, dehydration and decreased appetite
Arm B, twice weekly (BIW) oral dosing
  Maximum Tolerated Dose (MTD): not established
All 36 patients
  Treatment-related deaths: no treatment-related deaths
All 36 subjects
  Subjects who discontinued due to treatment-related AEs: 5 subjects
  Subjects who discontinued treatment due to AEs: 25%
  Subjects with treatment-related SAEs: 22%
All 36 subjects, overall
  Subjects with SAEs: 50%
All patients
  Hypokalaemia, treatment-related Gr 3 or 4 AE: 11%
  Hyponatraemia, treatment-related Gr 3 or 4 AE: 6%
  Nausea, treatment-related Gr 3 or 4 AE: 11%
All patients, all grades
  Decreased appetite, treatment related AE: 36%
  Diarrhoea, treatment related AE: 72%
  Hypokalaemia, treatment related AE: 28%
  Hypophosphataemia, treatment related AE: 64%
  Nausea, treatment related AE: 61%
  Rash, treatment related AE: 31%
All treated subjects
  Diarrhoea, AE regardless of causality: 72%
